Measured values: patent publication US20240041806A1, “Eyedrops for Inhibiting Myopia Progression in Children and Screening Method for Inhibitor of Myopia Progression in Children” (Tsubota Laboratory, Inc., priority 2020, published 2024)
Entries after “also recorded” stand apart in the source; their conditions may differ. Like-named read-outs stand apart in the source and are kept apart here.

Experiments:
[1] = system: myopia-induced juvenile mouse; assay: Lens-induced myopia (-30 D lens) in juvenile mouse: axial length (SD-OCT) and refraction; type: in vivo, mouse (C57BL6J); settings: for axial elongation of myopia-induced eye / myopic refraction of myopia-induced eye / axial elongation of control eye in which myopia had not been induced: eyedrop once a day for 10 days, 60 μM STF, 100 μM other inhibitors; for axial elongation of myopia-induced eye / myopic refraction of myopia-induced eye: -30 D lens eye; for axial elongation of control eye in which myopia had not been induced: compared with DMSO eyedrop
[2] = system: lens of myopia-induced juvenile mouse; settings: -30 D lens wearing group
Procedure: It was examined whether or not a difference in the dosage form of 4-PBA affects the change in the lens. In accordance with the description given above in “Experimental Method”, 4-PBA was eye-dropped or intraperitoneally administered to a myopia-induced juvenile mouse, and the thickness of the lens was measured with SD-OCT in the same manner as in the measurement of the axial length.

[3] = system: endoplasmic reticulum stress response genes (PERK pathway and ATF6 pathway) in the sclera; settings: FIG. 8
Procedure: A solution of sodium phenylbutyrate in PBS (4-PBA; 200 mg/kg) or tauroursodeoxycholic acid (TUDCA; 100 mg/kg) was intraperitoneally injected (i.p.) every day during the myopia induction period. Quantitative real-time PCR was performed using StepOnePlus Realtime PCR system with PowerUp SYBR Green Master Mix (Applied Biosystems, CA, USA). Expression level was standardized using β-actin. FIG. 8 illustrates change in gene expression obtained after intraperitoneal injection of 4-PBA every day through the myopia induction period. […] Besides, FIG. 10 illustrates axial elongation (a) and refraction change (b) obtained by eyedrop administration of 0.2% or 2% 4-PBA to a mouse during myopia induction. FIG. 11 illustrates axial elongation (b) and refraction change (a) obtained by intraperitoneal injection of TUDCA every day over the myopia induction period.

[4] = eyedrop administration of 2% 4-PBA as printed, 1st and 3rd weeks, FIG. 9

C[C@H](CCC(=O)NCCS(=O)(=O)O)[C@H]1CC[C@H]2[C@@H]3[C@@H](O)C[C@@H]4C[C@H](O)CC[C@]4(C)[C@H]3CC[C@]12C [TUDCA, tauroursodeoxycholic acid]
physiological axial elongation ([1]; intraperitoneal TUDCA 100 mg/kg every day during myopia induction, FIG. 11): did not inhibit physiological axial elongation | myopic refraction ([1]; intraperitoneal TUDCA 100 mg/kg every day during myopia induction, FIG. 11(a)): myopic refraction is inhibited | axial elongation (pathologic axial elongation) ([1]; intraperitoneal TUDCA 100 mg/kg every day during myopia induction, FIG. 11(b)): inhibited pathologic axial elongation; also recorded: axial elongation is inhibited

Cn1cc(-c2ccc3c(c2)CCN3C(=O)Cc2cccc(C(F)(F)F)c2)c2c(N)ncnc21 [GSK2606414]
axial elongation of myopia-induced eye [1]: neither axial elongation nor myopic refraction was inhibited | myopic refraction of myopia-induced eye [1]: neither axial elongation nor myopic refraction was inhibited | axial elongation of control eye in which myopia had not been induced [1]: the eye axis of the control eye also elongated

O=C(Nc1cnn(Cc2ccc(C(F)(F)F)cc2C(F)(F)F)c1)c1cc(-c2ccco2)on1 [Ceapin-A7]
axial elongation of myopia-induced eye [1]: neither axial elongation nor myopic refraction was inhibited | myopic refraction of myopia-induced eye [1]: neither axial elongation nor myopic refraction was inhibited | axial elongation of control eye in which myopia had not been induced [1]: the eye axis of the control eye also elongated

Cc1cc(=O)oc2c(C=O)c(O)ccc12 [4μ8C]
axial elongation of myopia-induced eye [1]: neither axial elongation nor myopic refraction was inhibited | myopic refraction of myopia-induced eye [1]: neither axial elongation nor myopic refraction was inhibited

Sodium phenylbutyrate [4-PBA]
lens thickening caused by myopia induction (LIM) ([2]; eyedrop administration of 4-PBA, FIG. 14(B)): lens thickening was not caused | lens thickening caused by myopia induction (LIM) ([2]; intraperitoneal administration of 4-PBA, FIG. 14(A)): did not affect lens thickening | axial elongation, dose dependence ([1]; eyedrop administration of 0.2% or 2% 4-PBA during myopia induction, FIG. 10(a)): dose-dependent effectiveness was found; also recorded: inhibits axial elongation dose-dependently | myopic refraction, dose dependence ([1]; eyedrop administration of 0.2% or 2% 4-PBA during myopia induction, FIG. 10(b)): dose-dependent effectiveness was found; also recorded: inhibits myopic refraction dose-dependently | axial elongation [1, 4]: significantly inhibited to the same extent | myopic refraction [1, 4]: significantly inhibited to the same extent | axial elongation ([1]; intraperitoneal 4-PBA 200 mg/kg/day, 1st week and 3rd week of myopia induction (LIM), FIG. 9(a)): the axial elongation is inhibited | myopic refraction ([1]; intraperitoneal 4-PBA 200 mg/kg/day, 1st week and 3rd week of myopia induction (LIM), FIG. 9(b)): the myopic refraction is inhibited | expression of endoplasmic reticulum stress response genes in sclera of myopia induced eyes ([3]; 4-PBA 200 mg/kg/day intraperitoneal vs PBS): the increase is inhibited | expression of genes disposed downstream of the PERK pathway and the ATF6 pathway ([3]; eyedrop administration of 2% 4-PBA as printed): significantly inhibited
